Results published in patent US6352630B1, “Electrochemical system for determining blood coagulation time” (Asulab S.A., priority 1999, dated 2002).

Biological target: T1, thrombin enzyme (Homo sapiens, UniProt P00734)
T1 construct: from tissue; host or cells: whole blood (drop of blood, 10 µl)
Experiment: specificity of the specific reagent vis-à-vis the thrombin enzyme, progressive inhibition by r-hirudin
Format: biochemical
Conditions: whole blood, thrombin inhibited by increasing r-hirudin
Procedure: In the experiments reported hereinafter, potentiostatic measurements were performed by chronoamperometry by means of a potentiostat PGP 201 connected to the Vm1 software of Radiometer (Copenhagen) allowing the following conditions to be obtained:
The surface of the working electrode of the sensor used is 0.035 cm^2 and the sample quantity, drop of blood, or reference solution is 10 μl. the recording of measurements starts 10 seconds after the sample is deposited. The oligopeptide used, hereinafter designated according to use by <>, selected from those indicated previously, is:
Given that whole blood contains extremely numerous constituents, the present experiment allows it to be shown that only the thrombin enzyme is capable of cutting the specific reagent substrate. The experiment is performed in the optimisation conditions defined by experiment 3 (namely PC/PS in the ratio 25/75, Hepes buffer and lyophilisation) starting with a dilution in equal parts of blood and buffer solution and progressively inhibiting the thrombin enzyme by increasing concentrations of r-hirudin (r-hirudin 2000 ATU/bulb, available from Pentapharm AG, Basel, Switzerland) which replace the buffer solution, preferably having checked that the factor Xa is not inhibited by r-hirudin. […]

Tos-Gly-Pro-Arg-3-chloro-4-hydroxyanilide, 2HCl [substrate]
cutting of the substrate, selectivity: selectively cut off by thrombin
